Holding throughout (assay type): cell-based
One experiment concerns RS4;11 cells. Briefly: Cell proliferation assay, RS4;11 cells (MTS, 72 h). Particulars: Homo sapiens, RS4;11 cell proliferation. Put shortly:
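RS4;11 cells (30000/well, RPMI-1640 plus 10% FBS) treated with compounds at 1.5-10000 nM for 72 h at 37° C, 5% CO2. Viability by MTS (2 h), absorbance at 490 nm with 650 nm reference; IC50 from proliferation inhibition.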

Another experiment has as its system DoHH2 cells. Briefly: Cell proliferation assay, DoHH2 cells (MTS, 120 h). The note with it: Homo sapiens, DOHH-2. Put shortly: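 DoHH2 cells in RPMI-1640 with 10% FBS were plated at 5000/well and rested 4 h. They were then exposed to compound at nine final concentrations (10000 to 1.5 nM) for 120 h at 37 °C. Viability was read by MTS (2 h, A490) and IC50 derived by curve fitting.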

A further experiment concerns Toledo cells. Briefly: Cell proliferation assay, Toledo cells (MTS, 72 h). The note with it: Homo sapiens, Toledo cells, MTS, read-out: Toledo IC50. Summed up:
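IC50 was derived from 490 nm absorbance after a 2 h MTS step. Before that, compounds at 1.5–10000 nM final (nine points) acted on Toledo cells for 72 h at 37 °C, 5% CO2. Cells were seeded at 30000/well in 10% FBS RPMI-1640 and rested 4 h before dosing.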

Each structure is given as a SMILES string. Bounds are passed on as bounds.

What is called IC50 is the concentration that gives 50% inhibition.

As for `O=C(NS(=O)(=O)c1cnc(NCC2CCOCC2)c([N+](=O)[O-])c1)c1ccc(N2CCC3(CC2)CC(N2CCC[C@@H]2c2ccccc2C2CC2)C3)cc1Oc1cnc2[nH]ccc2c1` [Example A-3b, (R)-2-((1H-pyrrolo[2,3-b]pyridin-5-yl)oxy)-4-(2-(2-(2-cyclopropyl-phenyl)pyrrolidin-1-yl)-7-azaspiro [3.5]nonan-7-yl)-N-((5-nitro-6-(((tetrahydro-2H-pyran-4-yl)methyl)amino)pyridin-3-yl)sulfonyl) benzamide], the IC50 in the experiment with RS4;11 cells is at most 1 nM; with DoHH2 cells it was at most 1 nM; with Toledo cells it was 1 nM.
As for `CN1CCN(C2CC3(CCN(c4ccc(C(=O)NS(=O)(=O)c5cnc(NC[C@H]6CC[C@](C)(O)CC6)c([N+](=O)[O-])c5)c(Oc5cnc6[nH]ccc6c5)c4)CC3)C2)[C@H](c2ccccc2C2CC2)C1` (single isomer, unassigned) [Example A-40, 2-((1H-pyrrolo[2,3-b]pyridin-5-yl)oxy)-4-(2-((R or S)-2-(2-cyclopropylphenyl)-4-methylpiperazin-1-yl)-7-azaspiro[3.5]nonan-7-yl)-N-((6-((((1r,4r)-4-hydroxy-4-methylcyclohexyl)methyl)amino)-5-nitropyridin-3-yl)sulfonyl)benzamide], the IC50 in the experiment on RS4;11 cells is at most 1 nM; with DoHH2 cells, at most 1 nM; in the experiment on Toledo cells, 1 nM.
As to `CC(C)c1ccccc1[C@@H]1COCCN1C1CC2(CCN(c3ccc(C(=O)NS(=O)(=O)c4cnc(NC[C@H]5CC[C@](C)(O)CC5)c([N+](=O)[O-])c4)c(Oc4cnc5[nH]ccc5c4)c3)CC2)C1` (single isomer, unassigned) [Example A-56b, 2-((1H-pyrrolo[2,3-b]pyridin-5-yl)oxy)-N-((6-((((1r,4r)-4-hydroxy-4-methylcyclohexyl)methyl)amino)-5-nitropyridin-3-yl)sulfonyl)-4-(2-((R or S)-3-(2-isopropylphenyl)morpho-lino)-7-azaspiro[3.5]nonan-7-yl) benzamide], the IC50 with RS4;11 cells is at most 1 nM; in the experiment on DoHH2 cells, at most 1 nM; in the experiment on Toledo cells, 1 nM.
For the compound `Cc1nc(NC[C@H]2CC[C@](C)(O)CC2)c([N+](=O)[O-])cc1S(=O)(=O)NC(=O)c1ccc(N2CCC3(CC2)CC(N2CCC[C@H]2c2ccccc2C(C)C)C3)cc1Oc1cnc2[nH]ccc2c1` (single isomer, unassigned) [Example A-121, 2-((1H-pyrrolo[2,3-b]pyridin-5-yl)oxy)-N-((6-((((1r,4r)-4-hydroxy-4-methylcyclohexyl)methyl)amino)-2-methyl-5-nitropyridin-3-yl)sulfonyl)-4-(2-((R or S)-2-(2-isopropylphenyl)pyrrolidin-1-yl)-7-azaspiro[3.5]nonan-7-yl) benzamide], the IC50 in the experiment on RS4;11 cells is at most 1 nM; in the experiment with DoHH2 cells, at most 1 nM; in the experiment on Toledo cells, 1 nM.
`CC(C)c1ccccc1[C@H]1CCCN1C1CC2(CCN(c3ccc(C(=O)NS(=O)(=O)c4cnc(NCC5CCOCC5)c([N+](=O)[O-])c4)c(Oc4cnc5[nH]ccc5c4)c3)CC2)C1` [Example A-5b, (R)-2-((1H-pyrrolo[2,3-b]pyridin-5-yl)oxy)-4-(2-(2-(2-isopropylphenyl)pyrrolidin-1-yl)-7-azaspiro[3.5]nonan-7-yl)-N-((5-nitro-6-(((tetrahydro-2H-pyran-4-yl)methyl)amino)pyridin-3-yl)sulfonyl) benzamide]: the 50% inhibitory concentration (IC50) is at most 1 nM with RS4;11 cells, at most 1 nM with DoHH2 cells and 1 nM with Toledo cells.
For `CC(C)c1ccccc1[C@@H]1COCCN1C1CC2(CCN(c3ccc(C(=O)NS(=O)(=O)c4cnc(NC[C@H]5CC[C@@](C)(O)CC5)c([N+](=O)[O-])c4)c(Oc4cnc5[nH]ccc5c4)c3)CC2)C1` (single isomer, unassigned) [Example A-56a, 2-((1H-pyrrolo[2,3-b]pyridin-5-yl)oxy)-N-((6-((((1s,4s)-4-hydroxy-4-methylcyclohexyl)methyl)amino)-5-nitropyridin-3-yl)sulfonyl)-4-(2-((R or S)-3-(2-isopropylphenyl)morpho-lino)-7-azaspiro[3.5]nonan-7-yl) benzamide], the IC50 in the experiment with RS4;11 cells was at most 1 nM; with DoHH2 cells, at most 1 nM; with Toledo cells it was 1 nM.
On to `CC1(O)CCC(CNc2ncc(S(=O)(=O)NC(=O)c3ccc(N4CCC5(CC4)CC(N4CCOC[C@H]4c4ccccc4C4CC4)C5)cc3Oc3cnc4[nH]ccc4c3)cc2[N+](=O)[O-])CC1` (single isomer, unassigned) [Example A-34, (R or S)-2-((1H-pyrrolo[2,3-b]pyridin-5-yl)oxy)-4-(2-(3-(2-cyclopropylphenyl)morpholino)-7-azaspiro[3.5]nonan-7-yl)-N-((6-(((4-hydroxy-4-methylcyclohexyl)methyl)amino)-5-nitropyridin-3-yl)sulfonyl) benzamide], for which the IC50 was at most 1 nM in the experiment with RS4;11 cells, at most 1 nM in the experiment with DoHH2 cells and 7 nM in the experiment on Toledo cells.
Take `O=C(NS(=O)(=O)c1cnc(NCC2C3COCC23)c([N+](=O)[O-])c1)c1ccc(N2CCC3(CC2)CC(N2CCC4C[C@]42c2ccccc2C2CC2)C3)cc1Oc1cnc2[nH]ccc2c1` (single isomer, unassigned) [Example A-97b, 2-((1H-pyrrolo[2,3-b]pyridin-5-yl)oxy)-N-((6-(((3-oxabicyclo[3.1.0]hexan-6-yl)methyl)amino)-5-nitro-pyridin-3-yl)sulfonyl)-4-(2-((1R or 1S)-1-(2-cyclopropylphenyl)-2-aza-bicyclo[3.1.0]hexan-2-yl)-7-azaspiro [3.5]nonan-7-yl)benzamide]: the half-maximal inhibitory concentration (IC50) was at most 1 nM with RS4;11 cells, at most 1 nM with DoHH2 cells and 6 nM in the experiment on Toledo cells.
For the compound `CC(C)c1ccccc1C1COCCN1C1CC2(CCN(c3ccc(C(=O)NS(=O)(=O)c4cnc(NCC5(C#N)CCOCC5)c([N+](=O)[O-])c4)c(Oc4cnc5[nH]ccc5c4)c3)CC2)C1` (single isomer, unassigned) [Example A-142, (R or S)-2-((1H-pyrrolo[2,3-b]pyridin-5-yl)oxy)-N-((6-(((4-cyanotetrahydro-2H-pyran-4-yl)methyl)amino)-5-nitro-pyridin-3-yl)sulfonyl)-4-(2-(3-(2-iso-propylphenyl)morpholino)-7-azaspiro [3.5]nonan-7-yl)benzamide], the IC50 in the experiment with RS4;11 cells is at most 1 nM; in the experiment with DoHH2 cells, at most 1 nM; in the experiment with Toledo cells, 9 nM.
For the compound `CC(C)c1ccccc1[C@H]1CCCN1C1CC2(CCN(c3ccc(C(=O)NS(=O)(=O)c4cnc(NC[C@H]5CC[C@@](C)(O)CC5)c([N+](=O)[O-])c4)c(Oc4cnc5[nH]ccc5c4)c3)CC2)C1` [Example A-7a, 2-((1H-pyrrolo[2,3-b]pyridin-5-yl)oxy)-N-((6-((((1s,4s)-4-hydroxy-4-methylcyclohexyl)methyl)amino)-5-nitropyridin-3-yl)sulfonyl)-4-(2-((R)-2-(2-isopropylphenyl)pyrrolidin-1-yl)-7-azaspiro[3.5]nonan-7-yl)benzamide], the figures for the IC50 with RS4;11 cells, with DoHH2 cells and in the experiment with Toledo cells were at most 1 nM, at most 1 nM and 1 nM, respectively.
In the case of `CC(C)c1ccccc1C1COCCN1C1CC2(CCN(c3ccc(C(=O)NS(=O)(=O)c4cnc(NCC5CCOCC5)c([N+](=O)[O-])c4)c(Oc4cnc5[nH]ccc5c4)c3)CC2)C1` (single isomer, unassigned) [Example A-55a, (R or S)-2-((1H-pyrrolo[2,3-b]pyridin-5-yl)oxy)-4-(2-(3-(2-isopropyl-phenyl)morpholino)-7-azaspiro[3.5]nonan-7-yl)-N-((5-nitro-6-(((tetra-hydro-2H-pyran-4-yl)methyl)amino)pyridin-3-yl)sulfonyl)benzamide], the IC50 in the experiment on RS4;11 cells is at most 1 nM; in the experiment with DoHH2 cells, at most 1 nM; in the experiment with Toledo cells it was 5 nM.
Take `CC(C)c1ccccc1[C@H]1CCCN1C1CC2(CCN(c3ccc(C(=O)NS(=O)(=O)c4cnc(NC[C@H]5CC[C@](C)(O)CC5)c([N+](=O)[O-])c4)c(Oc4cnc5[nH]ccc5c4)c3)CC2)C1` [Example A-7b]: the IC50 was at most 1 nM in the experiment on RS4;11 cells, at most 1 nM with DoHH2 cells and 1 nM in the experiment on Toledo cells.
For the compound `O=C(NS(=O)(=O)c1cnc(NCC2C3COCC23)c([N+](=O)[O-])c1)c1ccc(N2CCC3(CC2)CC(N2CCC[C@@H]2c2ccccc2C2CC2)C3)cc1Oc1cnc2[nH]ccc2c1` (stereo partly drawn) [Example A-30b, 2-((1H-pyrrolo[2,3-b]pyridin-5-yl)oxy)-N-((6-(((3-oxabicyclo[3.1.0]hexan-6-yl)methyl)amino)-5-nitro-pyridin-3-yl)sulfonyl)-4-(2-((R)-2-(2-cyclopropylphenyl)pyrrolidine-1-yl)-7-azaspiro[3.5]nonan-7-yl)benzamide], the IC50 in the experiment with RS4;11 cells is at most 1 nM; with DoHH2 cells it was at most 1 nM; in the experiment with Toledo cells, 1 nM.
For the compound `C[C@]1(O)CC[C@H](CNc2ncc(S(=O)(=O)NC(=O)c3ccc(N4CCC5(CC4)CC(N4CCNC[C@H]4c4ccccc4C4CC4)C5)cc3Oc3cnc4[nH]ccc4c3)cc2[N+](=O)[O-])CC1` [Example A-37, 2-((1H-pyrrolo[2,3-b]pyridin-5-yl)oxy)-4-(2-((R)-2-(2-cyclopropyl-phenyl)piperazin-1-yl)-7-azaspiro [3.5]nonan-7-yl)-N-((6-((((1r,4r)-4-hydroxy-4-methylcyclohexyl)methyl)amino)-5-nitropyridin-3-yl)sulfonyl)benzamide], the values for the IC50 with RS4;11 cells, in the experiment on DoHH2 cells and in the experiment on Toledo cells were at most 1 nM, at most 1 nM and 1 nM, respectively.

Source of the values: patent US20230159527A1, “COMPOUNDS AS BCL-2 INHIBITORS” (Fochon Pharmaceuticals, Ltd., priority 2020, published 2023).
